From patent publication US6479293B1, “Temperature indicating material and temperature monitoring member” (Toshiba Tec Kabushiki Kaisha, priority 1999, dated 2002) come the findings set out here.

Molecules are shown by their SMILES.

The procedure of this data set: The solubility of propyl gallate (PG) in molten cyclododecanol (CD) was studied. […] Here, temperature indicating members were prepared by adding cylododecanol (CD) in an amount permitting dissolution of 8 times the amount (Example 3), 4 times the amount (Example 4), twice the amount (Example 5), 1.2 times the amount (Example 6) and 0.8 time the amount (Example 7) of 1 part by weight of propyl gallate (PG), respectively. […] As comparative examples, a temperature indicating material free of cyclododecanol (CD) and that containing 5 parts by weight of 1-docosanol, which is a linear saturated alcohol, instead of cyclododecanol (CD) were prepared in Comparative Example 4 and Comparative Example 5, respectively.

The compound `O=C(c1ccc(O)cc1)c1ccc(O)c(O)c1O` [Example 2344, 2,3,4,4′-tetrahydroxybenzophenone] had a Solubility of 2. On to `CC(C)(c1ccc(O)cc1)c1ccc(O)cc1` [HBA, bisphenol A], for which the Solubility came out at 3. `CCCCCCCCCCCCOC(=O)c1cc(O)c(O)c(O)c1` [LG, lauryl gallate] had a Solubility of 10. Consider `CCCOC(=O)c1cc(O)c(O)c(O)c1` [PG, propyl gallate], for which the Solubility turned out to be 8 and the “Solubility of propyl gallate (PG) in molten cyclododecanol (CD)” value is “at least 0.8 g”.
